What was measured:
Chymotrypsinogen B [1] = molecular target: T1, Chymotrypsinogen B (Homo sapiens, UniProt P17538); test: Compound was tested for inhibitory activity against alpha-chymotrypsin
Chymotrypsinogen B [2] = molecular target: T1, Chymotrypsinogen B; test: Inhibitory potency was evaluated against alpha-chymotrypsin

T1 sequence (P17538 34-164 limits assumed, other chains not shown): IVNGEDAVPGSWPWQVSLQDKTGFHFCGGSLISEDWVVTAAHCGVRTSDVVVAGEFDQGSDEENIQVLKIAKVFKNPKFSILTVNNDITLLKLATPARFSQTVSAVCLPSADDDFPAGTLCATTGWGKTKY
T1 sequence (P17538 167-263 limits assumed, other chains not shown): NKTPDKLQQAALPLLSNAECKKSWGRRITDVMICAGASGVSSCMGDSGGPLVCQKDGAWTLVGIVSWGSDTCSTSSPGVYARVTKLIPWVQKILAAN

| Compound | Ki (Chymotrypsinogen B [1]) | K inact/Ki (Chymotrypsinogen B [2]) |
| --- | --- | --- |
| O=C(N[C@@H](Cc1ccccc1)[C@@H]1CO1)C1CCCN1C(=O)c1ccccc1 (single isomer, unassigned) | 820 µM |  |
| COC(=O)[C@@H](Cc1ccccc1)[C@@H]1CO1 (single isomer, unassigned) |  | 27 M⁻¹ s⁻¹ |
